In patent US11851446B2, “Probes for imaging Huntingtin protein” (CHDI Foundation, Inc., priority 2014, dated 2023):

How the values were obtained:
[1] = system: NFT in sections of AD brain tissue; conditions: in vitro autoradiography and fluorescent staining; cited from earlier work
[2] = system: recombinant tau and amyloid β1-42 (Aβ1-42) aggregates; conditions: higher affinity for the tau aggregates than Aβ1-42 aggregates; cited from earlier work
Q46 protein aggregates = target: T1, Q46 protein aggregates (Homo sapiens, UniProt P42858, INS38QQQQQQQQQQQQQQQQQQQQQQQQQ); assay: Q46 Radioligand Binding Assay (RBA); conditions: displacement of 10 nM [3H3]MK-3328 from 5 μM aggregated Q46 protein, 60 minutes at 37° C.
T1 construct: fused on or other part: GST at the N-terminus, cut off by thrombin before the test to start aggregation
T1 sequence (P42858 with tags, fused parts or gaps with the stated changes): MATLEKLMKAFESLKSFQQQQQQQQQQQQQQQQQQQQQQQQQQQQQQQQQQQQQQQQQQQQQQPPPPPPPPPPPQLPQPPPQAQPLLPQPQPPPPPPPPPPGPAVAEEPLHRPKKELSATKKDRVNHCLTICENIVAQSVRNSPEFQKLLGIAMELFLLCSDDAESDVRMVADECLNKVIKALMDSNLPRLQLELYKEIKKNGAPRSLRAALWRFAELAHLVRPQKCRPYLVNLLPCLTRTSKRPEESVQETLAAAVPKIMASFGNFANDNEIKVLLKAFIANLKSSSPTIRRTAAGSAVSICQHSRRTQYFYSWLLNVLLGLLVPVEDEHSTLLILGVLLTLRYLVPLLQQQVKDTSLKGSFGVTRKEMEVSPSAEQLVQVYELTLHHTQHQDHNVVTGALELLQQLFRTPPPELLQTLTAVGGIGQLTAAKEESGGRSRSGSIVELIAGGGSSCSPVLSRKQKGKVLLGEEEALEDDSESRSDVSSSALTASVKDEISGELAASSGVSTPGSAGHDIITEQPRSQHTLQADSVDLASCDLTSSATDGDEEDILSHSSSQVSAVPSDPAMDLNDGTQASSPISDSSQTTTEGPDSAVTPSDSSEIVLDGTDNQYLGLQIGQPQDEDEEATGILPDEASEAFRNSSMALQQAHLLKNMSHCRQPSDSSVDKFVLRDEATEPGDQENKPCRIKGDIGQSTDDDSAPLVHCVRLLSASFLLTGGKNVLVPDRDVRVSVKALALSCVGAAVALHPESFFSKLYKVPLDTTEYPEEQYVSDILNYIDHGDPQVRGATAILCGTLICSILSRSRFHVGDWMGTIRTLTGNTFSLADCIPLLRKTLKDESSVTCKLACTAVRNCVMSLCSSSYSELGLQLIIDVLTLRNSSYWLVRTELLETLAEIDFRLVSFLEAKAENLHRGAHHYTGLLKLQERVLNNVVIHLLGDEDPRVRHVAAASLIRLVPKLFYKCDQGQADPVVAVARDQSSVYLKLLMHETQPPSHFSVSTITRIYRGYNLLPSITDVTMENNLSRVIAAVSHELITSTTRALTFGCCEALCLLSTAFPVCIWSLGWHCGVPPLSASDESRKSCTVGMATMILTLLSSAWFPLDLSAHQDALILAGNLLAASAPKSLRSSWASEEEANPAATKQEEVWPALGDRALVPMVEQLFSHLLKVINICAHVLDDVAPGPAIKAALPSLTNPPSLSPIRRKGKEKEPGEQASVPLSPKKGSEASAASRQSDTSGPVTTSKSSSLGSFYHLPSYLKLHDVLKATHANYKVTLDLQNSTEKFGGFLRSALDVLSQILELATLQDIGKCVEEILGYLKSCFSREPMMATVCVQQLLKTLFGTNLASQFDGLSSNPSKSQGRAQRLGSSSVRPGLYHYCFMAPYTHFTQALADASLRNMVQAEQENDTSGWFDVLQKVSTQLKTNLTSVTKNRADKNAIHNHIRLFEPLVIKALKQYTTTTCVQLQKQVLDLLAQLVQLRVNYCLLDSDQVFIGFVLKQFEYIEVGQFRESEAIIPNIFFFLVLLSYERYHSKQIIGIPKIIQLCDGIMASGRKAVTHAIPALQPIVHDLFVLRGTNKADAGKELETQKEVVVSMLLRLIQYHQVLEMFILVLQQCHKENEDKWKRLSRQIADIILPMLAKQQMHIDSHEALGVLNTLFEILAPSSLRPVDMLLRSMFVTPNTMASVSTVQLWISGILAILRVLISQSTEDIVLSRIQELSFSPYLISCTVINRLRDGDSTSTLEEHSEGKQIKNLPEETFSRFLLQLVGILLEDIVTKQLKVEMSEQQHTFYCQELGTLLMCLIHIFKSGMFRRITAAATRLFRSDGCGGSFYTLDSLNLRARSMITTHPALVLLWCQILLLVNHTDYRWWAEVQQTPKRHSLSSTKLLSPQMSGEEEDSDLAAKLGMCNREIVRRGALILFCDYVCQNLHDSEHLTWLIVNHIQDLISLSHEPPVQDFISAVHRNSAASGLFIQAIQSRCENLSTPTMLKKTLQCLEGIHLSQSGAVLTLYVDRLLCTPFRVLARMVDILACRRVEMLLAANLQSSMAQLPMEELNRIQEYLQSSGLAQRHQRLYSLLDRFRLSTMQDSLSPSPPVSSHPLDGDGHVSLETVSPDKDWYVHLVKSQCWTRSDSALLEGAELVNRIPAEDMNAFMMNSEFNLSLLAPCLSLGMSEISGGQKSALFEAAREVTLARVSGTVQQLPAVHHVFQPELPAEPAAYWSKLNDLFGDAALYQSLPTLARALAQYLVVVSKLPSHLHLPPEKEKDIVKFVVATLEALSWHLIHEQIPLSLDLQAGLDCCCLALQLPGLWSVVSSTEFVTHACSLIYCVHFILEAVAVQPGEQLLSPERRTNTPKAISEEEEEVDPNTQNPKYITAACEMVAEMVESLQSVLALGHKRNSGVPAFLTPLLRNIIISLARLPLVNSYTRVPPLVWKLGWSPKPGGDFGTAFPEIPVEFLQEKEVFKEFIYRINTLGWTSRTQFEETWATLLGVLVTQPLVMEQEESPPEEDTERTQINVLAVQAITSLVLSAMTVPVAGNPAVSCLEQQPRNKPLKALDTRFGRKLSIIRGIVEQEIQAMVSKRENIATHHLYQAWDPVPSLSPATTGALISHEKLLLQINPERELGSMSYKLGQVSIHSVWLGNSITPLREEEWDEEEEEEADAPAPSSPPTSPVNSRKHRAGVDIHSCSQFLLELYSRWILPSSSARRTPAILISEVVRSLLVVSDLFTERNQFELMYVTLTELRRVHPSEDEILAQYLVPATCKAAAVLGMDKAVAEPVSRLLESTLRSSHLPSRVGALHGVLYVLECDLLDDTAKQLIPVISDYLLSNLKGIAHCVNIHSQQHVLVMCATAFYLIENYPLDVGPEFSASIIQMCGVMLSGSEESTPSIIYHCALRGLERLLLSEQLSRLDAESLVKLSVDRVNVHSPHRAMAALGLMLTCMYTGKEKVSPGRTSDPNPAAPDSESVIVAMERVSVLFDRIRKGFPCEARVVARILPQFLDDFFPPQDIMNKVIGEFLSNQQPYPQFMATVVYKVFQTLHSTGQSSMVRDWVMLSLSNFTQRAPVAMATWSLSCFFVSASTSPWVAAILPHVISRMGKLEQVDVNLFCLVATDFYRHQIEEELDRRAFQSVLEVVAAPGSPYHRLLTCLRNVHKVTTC
Description: Q46 Radioligand Binding Assay
For radioligand binding assays (RBA) GST-Q46 protein was generated based on a previous publication (Scherzinger et al. Cell, Vol. 90, 549-558, Aug. 8, 1997). For experiments 33 μM GST-Q46 was incubated with 150 μg/mL thrombin in assay buffer (150 mM NaCl, 50 mM Tris pH 8.0) and 2 mM CaCl2 for 16 hours at 37° C. Aggregated Q46 was pelleted by centrifugation for 5 minutes at 13,000 rpm in a bench top centrifuge and re-dissolved in the same volume of assay buffer. Test compounds were prepared by titration in DMSO at 11 concentrations from 33 μM to 1 nM. For the RBA, Q46 protein aggregates and test compounds were pre-incubated in assay buffer for 20 minutes at room temperature, in 140 μL/well in a 96-well plate (pp, round bottom). Then, ligand was added in 10 μL/well and incubated for 60 minutes at 37° C. Final assay concentrations were […] test compound, 5 μM Q46 protein (equivalent monomer concentration) and 10 nM ligand [^3H3]MK-3328 (Harrision et al., ACS Med. Chem. Lett., 2 (2011), pp 498-502). Samples were transferred onto GF/B filter plates and washed 2× with 200 μL PBS using a Filtermate Harvester. After drying filter plates for 1 hour at 37° C., the back of the plates was sealed with foil and 30 μl/well scintillation fluid (Packard MicroScint 40) was added, incubated for […] 15 minutes in the dark and counted in a TopCount reader. For analysis, replicate data from independent assay plates were normalized towards 0% and 100% inhibition using control wells of vehicle (0% inhibition) and 3 μM unlabelled MK-3328 (100% inhibition). IC50 values were determined with a sigmoidal inhibition model with four variables (top, bottom, slope, IC50) in a global fit using the normalized replicate data.

IC50 (Q46 protein aggregates) | Structure (SMILES) | binding to NFT in sections of AD brain tissue [1] | ratio of Kd values (tau aggregates vs Aβ1-42 aggregates) [2]
– | CN(C)c1ccc(/C=C/c2nc3ccc(I)cc3[nH]2)cc1 [SBIM-3, 4-[(E)-2-(6-iodo-1H-benzimidazol-2-yl)ethenyl]-N,N-dimethylaniline] | bound NFT | 2.73
100 to 500 nM | CNc1c(-c2cc3c(o2)CCN(C(=O)OC(C)(C)C)C3)nc2cc(C#N)ccn12 [tert-butyl 2-[7-cyano-3-(methylamino)imidazo[1,2-a]pyridin-2-yl]-4H,5H,6H,7H-furo[3,2-c]pyridine-5-carboxylate] | – | –
